Reference: PMC8476831, “Pharmacological Characterization of Toludesvenlafaxine as a Triple Reuptake Inhibitor” (Frontiers in Pharmacology, 2021)
Read-outs that look alike come from different tables or passages of the source. Marks after values point to notes of the source that are not given here.

How the values were obtained:
CUMS rats = test: Chronic unpredictable mild stress (CUMS) model: open field test and sucrose consumption; details: 7.3 mg/kg oral once daily 21 days
Description: Briefly, SD rats were randomly exposed to various stressors for 3 weeks. […] No stressor was repeated within 2 days for each rat. The control group was housed in a separate room, with free access to food and water, and not disturbed.
Rats received oral administration of study drugs once daily for 21 consecutive days during the chronic stress exposure period. At the end of the chronic stress and drug treatment period, the open field test (21st day) and amount of sucrose consumption (22nd day) were determined.
(§1) Locomotor activity was measured in custom-made acrylic boxes (Height✕Width✕Length: 40✕52✕52 cm). The boxes were placed underneath cameras and all sessions (the duration of the sessions was 5 min) were recorded and data were later quantified by experimenters blinded to treatments. The bottom surface of the boxes was divided into 16 equal squares. Two parameters were quantified from the sessions: the number of squares each rat crossed with both front paws and the number of rearing episodes. Standing with two front paws off the ground was considered one episode of rearing.
(§2) Rats were exposed to 1% sucrose solution in leak-proof bottles for 1 h per day for 3 consecutive days. […] The weight difference of the bottles before and after the 2-h test was considered the total amount of sucrose consumed by the rats.

[1] = system: olfactory bulbectomized rats; test: Olfactory bulbectomized model: open field test, sucrose consumption, serum corticosterone and testosterone
Protocol: Thereafter, all rats received daily intragastric dosing for 20 days. The open field test on the 7th and 14th days of dosing, sucrose consumption on the 18th day of dosing, and serum levels of corticosterone and testosterone on the 20th day of dosing were determined.
as §1, §2
The serum corticosterone and testosterone levels were measured following the kit instructions.

[2] = Blood, brain and hypothalamus distribution after single intragastric dose; assay type: in vivo, Wistar rats; details: rats, toludesvenlafaxine 8 mg/kg intragastric
Protocol: Total brain and hypothalamus distribution study was conducted in Wistar rats (4/sex/group) following a single intragastric dose at 8 mg/kg. […] All tissues were immediately rinsed with 200 μg/ml dichlorovos (as esterase inhibitor) ice-cold saline after collection and then were stored at −80°C until analysis using LC-MS/MS.

striatum = system: striatum; parameters: method as in Zhang et al., 2014; details: ref Zhang et al., 2014; cited from earlier work
[3] = 7.3 mg/kg daily, 20th day of dosing
[4] = both sexes, Wistar, rat, blood, oral, read-out: Blood concentration
[5] = both sexes, Wistar, rat, brain, oral, read-out: Brain concentration
[6] = both sexes, Wistar, rat, hypothalamus, oral, read-out: Hypothalamus concentration

CN(C)CC(c1ccc(O)cc1)C1(O)CCCCC1 (stereo not drawn) [DVS, desvenlafaxine succinate monohydrate]
Sugar consumption rate (CUMS rats; day 22): 82.1 ± 7.4^d %
Numbers of squares crossed (CUMS rats; open field day 21): 47.0 ± 12.1^e
Rearing time (CUMS rats; open field day 21): 15.2 ± 3.9^d seconds
Moving distance (squares crossed) Day 7 ([1]; 7.3 mg/kg daily intragastric): 26.8 ± 7.6 squares crossed
Moving distance (squares crossed) Day 14 ([1]; 7.3 mg/kg daily intragastric): 26.7 ± 10.1 squares crossed
Rearing time Day 7 ([1]; 7.3 mg/kg daily intragastric): 7.0 ± 3.1^d seconds
Rearing time Day 14 ([1]; 7.3 mg/kg daily intragastric): 9.4 ± 3.1^d seconds
Sugar consumption rate ([1]; 7.3 mg/kg daily, 18th day of dosing): 58.1 ± 26.6%
Corticosterone (serum) [1, 3]: 394.1 ± 231.6 ng/L
Testosterone (serum) [1, 3]: 2.4 ± 1.8 ng/mL

CN(C)CC(c1ccc(O)cc1)C1(O)CCCCC1 (stereo not drawn) [ODV, O-desmethylvenlafaxine]
concentration at 20 min ([2]; both sexes, Wistar, rat, blood, oral, 15 min row (footnote: detected at 20 min)): 90.9 ± 33.5 ng/mL
concentration at 1 h [2, 4]: 68.2 ± 23.6 ng/mL
concentration at 12 h [2, 4]: 2.84 ± 2.69 ng/mL
concentration at 15 min ([2]; both sexes, Wistar, rat, brain, oral, 15 min, read-out: Brain concentration): 13.8 ± 8.4 ng/g
concentration at 1 h [2, 5]: 20.9 ± 6.8 ng/g
concentration at 12 h [2, 5]: 2.06 ± 1.29 ng/g
concentration at 15 min ([2]; both sexes, Wistar, rat, hypothalamus, oral, 15 min, read-out: Hypothalamus concentration): 92.5 ng/g
concentration at 1 h [2, 6]: 97.9 ± 58 ng/g
concentration at 12 h [2, 6]: 7.22 ± 6.79 ng/g
Hypothalamus concentration ([2]; 15 min): 92.52 ± 68.23 ng/g
striatal DA level (striatum): does not increase
